# Reference: patent US20260262643A1, “HERBICIDAL BENZOXAZINES” (FMC CORPORATION, priority 2022, published 2026)
# What was measured:
# ducksalad = test: Test B flooded paddy test; format: in vivo, Heteranthera limosa; details: 250 g ai/ha, Flood, 13 days, 0 to 100 scale (0 no effect, 100 complete control)
# Summary of the method: (§1)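 Percent weed or crop control, judged by eye on a 0–100 scale 13 days post-treatment, reflects compound added to a 3 cm flood maintained over 2-leaf plants in the greenhouse. Missing entries are marked with a dash.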
# sedge, umbrella = test: Test B flooded paddy test; format: in vivo, Cyperus difformis; details: 250 g ai/ha, Flood, 13 days, 0 to 100 scale (0 no effect, 100 complete control)
# Summary of the method: as §1
# blackgrass [1] = test: Test A postemergence; format: in vivo, Alopecurus myosuroides
# Summary of the method: (§2)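 Seeds in loam–sand blend received a directed preemergence soil spray of compound in non-phytotoxic solvent with surfactant; postemergence plants (2–10 cm, one- to two-leaf stage) were sprayed with the same formulation. After 10 days in greenhouse, injury was rated visually versus untreated controls, 0 (no effect) to 100 (complete control).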
# soybean [2] = test: Test A postemergence; format: in vivo, Glycine max
# Summary of the method: as §2
# wheat [3] = test: Test A preemergence; format: in vivo, Triticum aestivum
# Summary of the method: as §2
# ryegrass, Italian [4] = test: Test A postemergence; format: in vivo, Lolium multiflorum
# Summary of the method: as §2
# barnyardgrass = test: Test B flooded paddy test; format: in vivo, Echinochloa crus-galli; details: 250 g ai/ha, Flood, 13 days, 0 to 100 scale (0 no effect, 100 complete control)
# Summary of the method: as §1
# ragweed [5] = test: Test A preemergence; format: in vivo, Ambrosia artemisiifolia
# Summary of the method: as §2
# soybean [6] = test: Test A preemergence; format: in vivo, Glycine max
# Summary of the method: as §2
# blackgrass [7] = test: Test A preemergence; format: in vivo, Alopecurus myosuroides
# Summary of the method: as §2
# oat, wild [8] = test: Test A preemergence; format: in vivo, Avena fatua
# Summary of the method: as §2
# foxtail, giant [9] = test: Test A preemergence; format: in vivo, Setaria faberi
# Summary of the method: as §2
# corn [10] = test: Test A postemergence; format: in vivo, Zea mays
# Summary of the method: as §2
# wheat [11] = test: Test A postemergence; format: in vivo, Triticum aestivum
# Summary of the method: as §2
# horseweed = test: Test A postemergence; format: in vivo, Erigeron canadensis
# Summary of the method: as §2
# foxtail, giant [12] = test: Test A postemergence; format: in vivo, Setaria faberi
# Summary of the method: as §2
# rice = test: Test B flooded paddy test; format: in vivo, Oryza sativa; details: 250 g ai/ha, Flood, 13 days, 0 to 100 scale (0 no effect, 100 complete control)
# Summary of the method: as §1
# pigweed, palmer [13] = test: Test A postemergence; format: in vivo, Amaranthus palmeri
# Summary of the method: as §2
# ragweed [14] = test: Test A postemergence; format: in vivo, Ambrosia artemisiifolia
# Summary of the method: as §2
# goosegrass [15] = test: Test A postemergence; format: in vivo, Eleusine indica
# Summary of the method: as §2
# oat, wild [16] = test: Test A postemergence; format: in vivo, Avena fatua
# Summary of the method: as §2
# goosegrass [17] = test: Test A preemergence; format: in vivo, Eleusine indica
# Summary of the method: as §2
# kochia [18] = test: Test A preemergence; format: in vivo, Bassia scoparia
# Summary of the method: as §2
# pigweed, palmer [19] = test: Test A preemergence; format: in vivo, Amaranthus palmeri
# Summary of the method: as §2
# kochia [20] = test: Test A postemergence; format: in vivo, Bassia scoparia
# Summary of the method: as §2
# ryegrass, Italian [21] = test: Test A preemergence; format: in vivo, Lolium multiflorum
# Summary of the method: as §2
# galium = test: Test A postemergence; format: in vivo, Galium aparine
# Summary of the method: as §2
# corn [22] = test: Test A preemergence; format: in vivo, Zea mays
# Summary of the method: as §2
# [23] = 125 g ai/ha, postemergence, 10 days, 0 to 100 scale, 0 no effect, 100 complete control
# [24] = 500 g ai/ha, postemergence, 10 days, visual injury, 0 to 100 scale (0 no effect, 100 complete control)
# [25] = 125 g ai/ha, visual injury after 10 days, 0 to 100 scale, 0 is no effect, 100 is complete control
# [26] = 500 g ai/ha, 0 to 100 scale (0 no effect, 100 complete control), 10 days
# [27] = 125 g ai/ha, postemergence, 10 days, visual injury, 0 to 100 scale (0 no effect, 100 complete control)
# [28] = 500 g ai/ha, Postemergence, 0 to 100 scale
structure (smiles),measurement,setting,value
C#CCOc1ccc(-n2cnc(C(C)C)n2)cc1C(=O)N1C[C@H](C)Oc2c(Cl)cccc21 [Compound 107],"Plant response rating, Ducksalad",ducksalad,25
same,"Plant response rating, Sedge, Umbrella","sedge, umbrella",90
same,Blackgrass plant response rating,blackgrass [1]; [23],60
same,"Plant response rating, Blackgrass",blackgrass [1]; [24],80
same,Soybean plant response rating,soybean [2]; [23],100
same,"Plant response rating, Soybean",soybean [2]; [24],100
same,"Plant response rating, Wheat",wheat [3]; [25],0
same,"Plant response rating, Wheat",wheat [3]; [26],40
same,"Ryegrass, Italian plant response rating","ryegrass, Italian [4]; [23]",20
same,"Plant response rating, Ryegrass, Italian","ryegrass, Italian [4]; [24]",60
same,"Plant response rating, Barnyardgrass",barnyardgrass,70
same,"Plant response rating, Ragweed",ragweed [5]; [25],30
same,"Plant response rating, Soybean",soybean [6]; [25],50
same,"Plant response rating, Soybean",soybean [6]; [26],70
same,"Plant response rating, Blackgrass",blackgrass [7]; [25],20
same,"Plant response rating, Blackgrass",blackgrass [7]; [26],40
same,"Plant response rating, Oat, Wild","oat, wild [8]; [25]",60
same,"Plant response rating, Oat, Wild","oat, wild [8]; [26]",70
same,"Plant response rating, Foxtail, Giant","foxtail, giant [9]; [25]",100
same,"Plant response rating, Foxtail, Giant","foxtail, giant [9]; [26]",100
same,Corn plant response rating,corn [10]; [23],70
same,"Plant response rating, Corn",corn [10]; [24],80
same,Wheat plant response rating,wheat [11]; [23],30
same,"Plant response rating, Wheat",wheat [11]; [24],30
same,Horseweed plant response rating,horseweed; [23],20
same,"Plant response rating, Horseweed",horseweed; [24],30
same,"Foxtail, Giant plant response rating","foxtail, giant [12]; [23]",90
same,"Plant response rating, Foxtail, Giant","foxtail, giant [12]; [24]",100
same,"Plant response rating, Rice",rice,20
same,"Pigweed, Palmer plant response rating","pigweed, palmer [13]; [23]",90
same,"Plant response rating, Pigweed, Palmer","pigweed, palmer [13]; [24]",100
same,Ragweed plant response rating,ragweed [14]; [23],50
same,"Plant response rating, Ragweed",ragweed [14]; [24],70
same,Goosegrass plant response rating,goosegrass [15]; [23],70
same,"Plant response rating, Goosegrass",goosegrass [15]; [24],100
same,"Oat, Wild plant response rating","oat, wild [16]; [23]",30
same,"Plant response rating, Oat, Wild","oat, wild [16]; [24]",70
same,"Plant response rating, Goosegrass",goosegrass [17]; [25],100
same,"Plant response rating, Goosegrass",goosegrass [17]; [26],100
same,"Plant response rating, Kochia",kochia [18]; [25],20
same,"Plant response rating, Kochia",kochia [18]; [26],80
same,"Plant response rating, Pigweed, Palmer","pigweed, palmer [19]; [25]",100
same,"Plant response rating, Pigweed, Palmer","pigweed, palmer [19]; [26]",100
same,Kochia plant response rating,kochia [20]; [23],80
same,"Plant response rating, Kochia",kochia [20]; [24],90
same,"Plant response rating, Ryegrass, Italian","ryegrass, Italian [21]; [25]",80
same,"Plant response rating, Ryegrass, Italian","ryegrass, Italian [21]; [26]",100
same,Galium plant response rating,galium; [23],100
same,"Plant response rating, Galium",galium; [24],100
same,"Plant response rating, Corn",corn [22]; [25],10
same,"Plant response rating, Corn",corn [22]; [26],50
Cc1cccc2c1O[C@@H](C)CN2C(=O)c1cccc(-n2cnc(C(C)C)n2)c1 [Compound 55],"Plant response rating, Ducksalad",ducksalad,75
same,"Plant response rating, Sedge, Umbrella","sedge, umbrella",95
same,"Plant response rating, Blackgrass",blackgrass [1]; [27],60
same,"Plant response rating, Blackgrass",blackgrass [1]; [28],80
same,"Plant response rating, Soybean",soybean [2]; [27],100
same,"Plant response rating, Soybean",soybean [2]; [28],100
same,"Plant response rating, Wheat",wheat [3]; [25],40
same,"Plant response rating, Wheat",wheat [3]; [26],60
same,"Plant response rating, Ryegrass, Italian","ryegrass, Italian [4]; [27]",50
same,"Plant response rating, Ryegrass, Italian","ryegrass, Italian [4]; [28]",100
same,"Plant response rating, Barnyardgrass",barnyardgrass,30
same,"Plant response rating, Ragweed",ragweed [5]; [25],20
same,"Plant response rating, Ragweed",ragweed [5]; [26],40
same,"Plant response rating, Soybean",soybean [6]; [25],30
same,"Plant response rating, Soybean",soybean [6]; [26],100
same,"Plant response rating, Blackgrass",blackgrass [7]; [25],80
same,"Plant response rating, Blackgrass",blackgrass [7]; [26],90
same,"Plant response rating, Oat, Wild","oat, wild [8]; [25]",70
same,"Plant response rating, Oat, Wild","oat, wild [8]; [26]",90
same,"Plant response rating, Foxtail, Giant","foxtail, giant [9]; [25]",100
same,"Plant response rating, Foxtail, Giant","foxtail, giant [9]; [26]",100
same,"Plant response rating, Corn",corn [10]; [27],40
same,"Plant response rating, Corn",corn [10]; [28],80
same,"Plant response rating, Wheat",wheat [11]; [27],40
same,"Plant response rating, Wheat",wheat [11]; [28],60
same,"Plant response rating, Horseweed",horseweed; [27],0
same,"Plant response rating, Horseweed",horseweed; [28],30
same,"Plant response rating, Foxtail, Giant","foxtail, giant [12]; [27]",100
same,"Plant response rating, Foxtail, Giant","foxtail, giant [12]; [28]",100
same,"Plant response rating, Rice",rice,0
same,"Plant response rating, Pigweed, Palmer","pigweed, palmer [13]; [27]",40
same,"Plant response rating, Pigweed, Palmer","pigweed, palmer [13]; [28]",60
same,"Plant response rating, Ragweed",ragweed [14]; [27],50
same,"Plant response rating, Ragweed",ragweed [14]; [28],70
same,"Plant response rating, Goosegrass",goosegrass [15]; [27],50
same,"Plant response rating, Goosegrass",goosegrass [15]; [28],90
same,"Plant response rating, Oat, Wild","oat, wild [16]; [27]",40
same,"Plant response rating, Oat, Wild","oat, wild [16]; [28]",80
same,"Plant response rating, Goosegrass",goosegrass [17]; [25],100
same,"Plant response rating, Goosegrass",goosegrass [17]; [26],100
same,"Plant response rating, Kochia",kochia [18]; [25],90
same,"Plant response rating, Kochia",kochia [18]; [26],100
same,"Plant response rating, Pigweed, Palmer","pigweed, palmer [19]; [25]",80
same,"Plant response rating, Pigweed, Palmer","pigweed, palmer [19]; [26]",90
same,"Plant response rating, Kochia",kochia [20]; [27],80
same,"Plant response rating, Kochia",kochia [20]; [28],90
same,"Plant response rating, Ryegrass, Italian","ryegrass, Italian [21]; [25]",80
same,"Plant response rating, Ryegrass, Italian","ryegrass, Italian [21]; [26]",100
same,"Plant response rating, Galium",galium; [27],100
same,"Plant response rating, Galium",galium; [28],100
same,"Plant response rating, Corn",corn [22]; [25],0
same,"Plant response rating, Corn",corn [22]; [26],30
